From patent US9198896B2 (priority 2006, dated 2015)

How the values were obtained:
EAC cells = assay: Tumor growth inhibition study; conditions: individually, at the concentrations mentioned in Table 7
Protocol: Tumor growth inhibition study: For this study, the total number of EAC cells was counted. The ascites fluid containing cells were quantitatively removed from peritoneal cavity of two mice for a particular drug combination. The cavity was further washed twice with a fixed volume of 0.9% NaCl. The washing and the ascites fluid containing the cells were pooled and centrifuged at 2000×g for 5 min. The packed cell volumes were noted. A fixed amount of aliquot from the packed cells was appropriately diluted, and the number of cells was counted in a hemocytometer. Averages (X^−±SEM) were made of these two parameters, and percentage inhibitions [(1−T/C)×100] were calculated for each dose of different test combinations.

Ehrlich ascites cells = assay: Loss of viability of Ehrlich ascites cells on incubation; conditions: read-out: reduction of viability of Ehrlich ascites cells

SMILES	effect on EAC cells inoculated mice (EAC cells)	cytotoxicity at 200 µM (Ehrlich ascites cells)
O=C1O[C@H]([C@@H](O)CO)C(O)=C1O [ascorbic acid, reference compound]	no effect	–
COc1ccc2[nH]cc(CCNC(C)=O)c2c1 [melatonin]	–	~10%
CN(CC(=O)O)C(=N)N [creatine]	no effect	–
